We go through 4 molecules from patent US20030114460A1, “Pharmaceutical conjugates with enhanced pharmacokinetic characteristics” (priority 2001, published 2003).

The structures appear in SMILES notation. Like-named read-outs stand apart in the source and are kept apart here.

The test system of one series is CMV retinitis. The series can be described thus: Patient case, CMV retinitis (Example 5). The series is classed as in vivo, human. The text has this: A person complains of gradual onset of floaters and progressive reduction of vision in both eyes, but without pain. The patient has been HIV+ for 7 years, and was recently hospitalized for Cryptococcal pneumonia. The patient is taking AZT, ddI, indinivir, and has been for the past three years, with moderate compliance. […] Granular hemorrhagic areas are noted throughout the retina, with a “brushfire” appearance. […] These findings are all evidence of CMV retinitis, secondary to AIDS. Ganciclovir-conjugate 0.5% 1 drop four times daily in both eyes is prescribed. At a two-week follow-up examination, the patient states full compliance with the treatment protocol. The patient also states an improvement in vision with a reduced number of floaters. […] The patient is advised to continue the ganciclovir-conjugate drops indefinitely.

A further series deals with fungal corneal ulcer. The series can be described thus: Patient case, fungal corneal ulcer (Example 3). The series is classed as in vivo, human. The settings on record: next day; 5% natamycin drops each hour (day) / every two hours (night) with 5% homatropine four times each day. The method, then:
A […] […] […] comes to a clinic complaining of severe pain, redness, tearing, and photophobia in […] left eye. One day before, the patient was hit by a tree twig while playing football in the park. Severe conjunctival hyperemia with clear discharge is observed. […] Intraocular pressure is also elevated (20 mmHg) by Goldman tonometry. A fungal corneal ulcer is diagnosed. The patient is administered 5% natamycin drops each hour during the day and every two hours at night and 5% homatropine four times each day for […] left eye. […] The patient is experiencing blurriness in the left eye. […] The extent of Na Fl stain is also enlarged. The patient is given 0.15% amphotericin B drops and 5% ketoconazole-conjugate drops once daily in both eyes. […] 5% natamycin drops every two hours are administered around the clock, as well as 5% homatropine two times daily, and 5% ketoconazole-conjugate drops once daily.

Series [1] is classed as in vivo, human. As to the method: A person receives a routine eye examination. […] With their habitual spectacle correction, their best corrected visual acuities are 20/20 in both eyes. Their pupils are found to be round, equally reactive to light, and without any presence of afferent pupillary defect. […] Their intraocular pressures are measured at 32 mmHg in both eyes (with the Goldmann tonometer at 3 pm). […] A Humphrey C-20 automated threshold visual field test indicates the presence of generalized depression in both eyes. […] Their blood pressure is 125/85 and their pulse rate is 60 beats/min. Because of the enlarged cup to disc ratio, elevated intraocular pressures, and the generalized depression of the threshold visual fields, they are diagnosed with open angle glaucoma. Timolol 0.5% 1 drop two times daily in both eyes is prescribed for two weeks. The patient is to return in two weeks for a follow-up evaluation. At the follow-up evaluation, they state that they have been compliant with the prescribed therapy. Their intraocular pressure is measured at 28 mmHg at 1 pm with the Goldmann tonometer. Their blood pressure is 118/86 and their pulse rate is 65 beats/min. Bromonidine-conjugate 0.2% 1 drop two times daily in both eyes is added to the treatment regimen. After another two weeks, the patient has a follow-up evaluation, during which, the patient's intraocular pressure measures 18 mmHg in the right eye, and 17 mmHg in the left eye. Their blood pressure and pulse rate remain normal. The patient is re-evaluated every 3 months with the continuation of combination therapy.

Series [2] in a line: Autoradiography of the eye after topical ophthalmic instillation. The series is classed as in vivo, albino and pigmented rabbits. The method, then: General disposition of topical ophthalmic 1-amino-3,5-dimethyladamantane hydrochloride (memantine) instillation was assessed by autoradiography. Briefly, albino and pigmented rabbits were dosed via topical ophthalmic instillation with a 0.74% aqueous isotonic memantine solution, pH 7.4. After dosing autoradiographic sections of the eye were acquired at 0.25, 0.5, 1, and 2 and 24 hours post dosing. […] Further, a qualitative assessment of residence time could be made from the data.

A further series is described as follows: pKa of the charged amine. The class given is physicochemical. The following applies: charged amine of memantine HCl. An excerpt:
(§1) For example, memantine may be employed as an EEC in accordance with this invention. […] The memantine HCl apparent octanol/water partition coefficient is Log 3.0. The high apparent partition and high solubility appear contradictory. However, the charged amine of memantine HCl (pKa 10.27) results in the high solubility while the free base results in the high partitioning of memantine into octanol. As the HCl salt and free base are in equilibrium, permeation of the free base through biologic tissues results. The impact of a high solubility and a high partition coefficient of the free base are a high bioavailability.

Series [3] in a line: Ocular tissue concentrations after oral and topical dosing. The class given is in vivo, Rabbits. The settings on record: rabbit, retina, read-out: retinal memantine concentration. As to the method:
Ocular tissue concentrations were also determined after oral and topical dosing. Rabbits were dosed topically with 35 μl of a 0.1% aqueous solution of memantine twice a day for 7 days. Another subset of rabbits was dosed orally with 2 mg/kg memantine for seven days. At the end of the dosing period ocular tissue concentrations were quantified. The retinal memantine concentrations from topical and oral dosing were essentially equivalent (107 ng/ml and 108 ng/ml, respectively).

The nature of series [4]: Apparent octanol/water partition coefficient. The class given is physicochemical. The settings on record: memantine HCl, printed as Log 3.0.
From the text: as §1

The nature of series [5]: Aqueous solubility of memantine HCl. The class given is physicochemical. The following applies: HCl salt, pH 6.5 aqueous solution.
From the text: as §1

On to `CC12CC3CC(N)(C1)CC(C(=O)OCC(CO)OCn1cnc4c(=O)[nH]c(N)nc41)(C3)C2` (stereo not shown) [Ganciclovir-conjugate], for which the clinical outcome in the series on CMV retinitis (one month follow-up, same regimen) is on record as “complete remission of ocular manifestations of CMV retinitis”. For the same molecule, the ophthalmic examination outcome in the series with CMV retinitis (two-week follow-up, 0.5% 1 drop four times daily in both eyes) is “reduction in hemorrhages around the retinal vessels and cotton wool spots”.

In the case of `C[C@@H]1C/C=C/C=C/C=C/C=C/[C@H](O[C@@H]2O[C@H](C)[C@@H](O)[C@H](N)[C@@H]2O)C[C@@H]2O[C@](O)(C[C@@H](O)C[C@H]3O[C@@H]3/C=C/C(=O)O1)C[C@H](O)[C@H]2C(=O)O` [natamycin], the clinical outcome in the series with fungal corneal ulcer is “symptoms have not improved”.

On to `CC(C)(C)NC[C@H](O)COc1nsnc1N1CCOCC1` [Timolol], for which the intraocular pressure in series [1] (after two weeks of Timolol 0.5% 1 drop two times daily, both eyes, baseline 32 mmHg, Goldmann tonometer) was found to be 28 mmHg. In series [1] (human, in vivo), the blood pressure is on record as 118/86 and the pulse rate was 65 beats/min.

As for `CC12CC3CC(C)(C1)CC(N)(C3)C2.Cl` [memantine, 1-amino-3,5-dimethyladamantane hydrochloride], in the series “In-vitro melanin binding”, the “binding to natural and synthetic melanin” value was “strongly bound”. Besides, the “tissue distribution after topical dosing (autoradiography)” value in series [2] (0.74% aqueous isotonic solution pH 7.4, topical ophthalmic, sections 0.25-24 h post dosing) is listed as “present in the posterior sclera, choroids and/or retina”. Further, the “half-life in the posterior globe (qualitative)” value in series [2] (albino and pigmented rabbits, topical ophthalmic 0.74% solution) is “relatively long”. In series [2] (pigmented tissues, topical ophthalmic 0.74% solution), the “binding to ocular melanin (autoradiography intensity in pigmented tissues)” value is “bound to the ocular melanin”. Also, the “route of penetration from topical delivery (autoradiography)” value in [2] (topical delivery) is “trans-retinal route of penetration across the blood-retinal barrier”. In addition, the pKa in the series “pKa of the charged amine” is 10.3. The concentration at 7 days came to 107 ng/mL in [3] (35 μl of a 0.1% aqueous solution, topical, 35 μl of 0.1% aqueous solution twice a day for 7 days) and 108 ng/mL in series [3] (oral, 2 mg/kg for seven days). Further, the “apparent octanol/water partition coefficient (Log)” value in series [4] was 3.0. Further, the solubility in [5] was 3.5%.
